Bridges are numbered along the chain shown (N, C = ends). [ ]: non-standard residue; d: D form. The star is where a group is joined. Biotin = O=C1N[C@H]2[C@H](CS[C@H]2CCCCC(=O)*)N1; Lys(Me2) = CN(C)CCCC[C@H](N)C(=O)O; PEG4 = NCCOCCOCCOCCOCCC(=O)O
Columns and labels:
[1] = Thermal stability (Tm) of B7-H3 miniprotein conjugates; format: physicochemical
Method: Thermal stability was assessed for several exemplary miniprotein conjugates and reported as Tm (e.g., see Table 7A).
As compared to unconstrained sequences (e.g., as in Table 2A and shown for C211 in Table 7A), those with disulfide bonds (e.g., as in Table 2C and shown for C234, C275, C294, and C309 in Table 7A) were more thermally stable (see Table 7A), and exemplary compounds with two disulfide bridges (C234, C275, and C309) were stable at higher temperatures than an exemplary compound with one disulfide bridge (C294).

[2] = tested on: opossum kidney proximal tubule cells; test: Proximal tubule epithelial cell (OK cell) uptake assay relative to control C4; format: cell-based
Method: Inhibition constant (Ki) of each conjugate was measured using DELFIA as described herein.

[3] = tested on: opossum kidney proximal tubule cells; test: OK-PTC uptake assay of miniprotein conjugates in presence of scaffold A decoys; format: cell-based; conditions: compound 20 μM
Method: This Example describes reduction of uptake of exemplary truncated and constrained B7-H3 miniprotein conjugates (C272, C308, C234, C394, C250, and C228) when combined with exemplary scaffold A decoys (C118, C119 and C120) as compared to no decoy. Uptake of compounds was evaluated in opossum kidney proximal tubule cells (as described in Example 5). Here, cells were treated with a compound in the presence or absence of a 20-fold molar excess of exemplary scaffold A decoys, C118, C119, and C120. Results depicting uptake of six exemplary B7-H3-targeting compounds, C272, C308, C234, C394, C250, and C228, in OK-PTC cells in the presence and absence of exemplary decoys C118, C119, and C120 (scaffold A decoys) are shown in Table 13. The B7-H3-targeting compounds were used at 20 μM and the decoys used at a 20-fold (with C272, C308, C234, C394, and C250) and 10-fold (with C228) molar excess.

Molecule: {Biotin-PEG4}-CAREKIAALSEIIWLPCLTYAQI[Lys(Me2)]AFIAALNDDPCQSSEILSEAKELCS-NH2 (disulfide 1-35, 17-48) [Compound C275]
- Tm (° C.) [1]: ~≥75 °C
- % Uptake of C4 [2]: 3%

Molecule: CC[C@H](C)[C@@H]1NC(=O)[C@H](Cc2ccccc2)NC(=O)[C@H](C)NC(=O)[C@H](CCCCN(C)C)NC(=O)[C@H]([C@@H](C)CC)NC(=O)[C@H](CCC(N)=O)NC(=O)[C@H](C)NC(=O)[C@H](Cc2ccc(O)cc2)NC(=O)[C@H]([C@@H](C)O)NC(=O)[C@H](CC(C)C)NC(=O)[C@@H]2CSSC[C@@H](C(=O)N[C@@H](CO)C(N)=O)NC(=O)[C@H](CC(C)C)NC(=O)[C@H](CCC(=O)O)NC(=O)[C@H](CCCCN)NC(=O)[C@H](C)NC(=O)[C@H](CCC(=O)O)NC(=O)[C@H](CO)NC(=O)[C@H](CC(C)C)NC(=O)[C@H]([C@@H](C)CC)NC(=O)[C@H](CCC(=O)O)NC(=O)[C@H](CO)NC(=O)[C@H](CO)NC(=O)[C@H](CCC(N)=O)NC(=O)[C@H](CSSC[C@H](NC(=O)CCOCCOCCOCCOCCNC(=O)CCCC[C@@H]3SC[C@@H]4NC(=O)N[C@@H]43)C(=O)N[C@@H](C)C(=O)N[C@@H](CCCC[N+](C)(C)C)C(=O)N[C@@H](CCC(=O)O)C(=O)N[C@@H](CCCCN)C(=O)N[C@@H]([C@@H](C)CC)C(=O)N[C@@H](C)C(=O)N[C@@H](C)C(=O)N[C@@H](CC(C)C)C(=O)N[C@@H](CO)C(=O)N[C@@H](CCC(=O)O)C(=O)N[C@@H]([C@@H](C)CC)C(=O)N[C@@H]([C@@H](C)CC)C(=O)N[C@@H](Cc3c[nH]c4ccccc34)C(=O)N[C@@H](CC(C)C)C(=O)N3CCC[C@H]3C(=O)N2)NC(=O)[C@@H]2CCCN2C(=O)[C@H](CC(=O)O)NC(=O)[C@H](CC(=O)O)NC(=O)[C@H](CC(N)=O)NC(=O)[C@H](CC(C)C)NC(=O)[C@H](C)NC(=O)[C@H](C)NC1=O [Compound C234]
- Tm (° C.) [1]: ~≥75 °C
- % Uptake reduction in the presence of a decoy C118 ([3]; 20-fold molar excess of decoy C118): 86.4%
- % Uptake reduction in the presence of a decoy C119 ([3]; 20-fold molar excess of decoy C119): 96.2%
- % Uptake reduction in the presence of a decoy C120 ([3]; 20-fold molar excess of decoy C120): 96.9%

From US12691186B2, “B7-H3 miniproteins, conjugates, and uses thereof” (priority 2023, dated 2026)
